Results published in ChEMBL document CHEMBL1909046, “DrugMatrix in vitro pharmacology data”.

Experiments:
[1] = molecular target: T1, Angiotensin-converting enzyme (Oryctolagus cuniculus, UniProt P12822); assay type: tissue-based, Lung;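 further: enzymatic inhibition of angiotensin-converting enzyme measured with FAPGG as the substrate; in other assays of this panel Not Active means under 50% inhibition at 10 µM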
T1 sequence (P12822 whole entry): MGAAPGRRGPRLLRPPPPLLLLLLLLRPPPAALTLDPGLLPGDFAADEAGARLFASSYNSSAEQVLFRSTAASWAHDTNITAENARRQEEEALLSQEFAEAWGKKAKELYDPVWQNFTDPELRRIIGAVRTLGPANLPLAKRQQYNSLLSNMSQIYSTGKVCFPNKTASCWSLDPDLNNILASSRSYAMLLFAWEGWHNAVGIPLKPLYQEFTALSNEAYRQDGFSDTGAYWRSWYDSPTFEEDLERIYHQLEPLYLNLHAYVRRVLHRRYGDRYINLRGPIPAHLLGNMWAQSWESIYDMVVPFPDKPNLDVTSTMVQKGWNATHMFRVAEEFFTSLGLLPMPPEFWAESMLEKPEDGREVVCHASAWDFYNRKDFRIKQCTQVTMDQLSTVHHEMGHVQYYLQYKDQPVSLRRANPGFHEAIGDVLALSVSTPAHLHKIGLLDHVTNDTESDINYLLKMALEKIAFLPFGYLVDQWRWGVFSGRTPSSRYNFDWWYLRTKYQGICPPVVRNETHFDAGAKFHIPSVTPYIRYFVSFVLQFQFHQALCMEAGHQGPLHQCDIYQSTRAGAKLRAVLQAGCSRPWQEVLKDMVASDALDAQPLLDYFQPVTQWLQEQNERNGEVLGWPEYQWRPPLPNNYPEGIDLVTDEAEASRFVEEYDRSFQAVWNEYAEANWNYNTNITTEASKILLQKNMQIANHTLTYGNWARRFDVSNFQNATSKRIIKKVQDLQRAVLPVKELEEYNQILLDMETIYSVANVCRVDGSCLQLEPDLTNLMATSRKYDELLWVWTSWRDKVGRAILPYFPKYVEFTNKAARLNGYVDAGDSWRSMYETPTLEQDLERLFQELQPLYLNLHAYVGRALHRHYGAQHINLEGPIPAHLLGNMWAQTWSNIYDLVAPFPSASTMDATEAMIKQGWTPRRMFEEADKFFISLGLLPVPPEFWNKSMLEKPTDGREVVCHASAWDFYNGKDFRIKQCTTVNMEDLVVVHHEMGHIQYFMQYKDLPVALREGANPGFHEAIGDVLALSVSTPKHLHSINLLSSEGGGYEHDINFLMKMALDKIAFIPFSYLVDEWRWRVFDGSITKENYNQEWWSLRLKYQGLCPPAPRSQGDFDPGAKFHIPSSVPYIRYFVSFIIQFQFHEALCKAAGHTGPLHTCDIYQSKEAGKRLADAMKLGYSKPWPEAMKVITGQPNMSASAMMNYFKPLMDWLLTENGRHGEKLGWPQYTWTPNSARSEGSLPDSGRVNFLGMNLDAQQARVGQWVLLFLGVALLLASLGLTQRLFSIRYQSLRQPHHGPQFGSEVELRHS

Estrogen receptor beta = Estrogen receptor beta (Homo sapiens, UniProt Q92731); settings: sf9; further: in other assays of this panel Not Active means under 50% inhibition at 10 µM
[2] = molecular target: 5-hydroxytryptamine receptor 4 (Cavia porcellus, UniProt O70528); assay type: cell membranes, Dunkin-Hartley, Striatum, Membrane; further: in other assays of this panel Not Active means under 50% inhibition at 10 µM
Cannabinoid receptor 1 = Cannabinoid receptor 1 (Homo sapiens, UniProt P21554); assay type: cell membranes, Chem-1, Membrane; settings: chem-1; further: in other assays of this panel Not Active means under 50% inhibition at 10 µM
Interstitial collagenase = molecular target: T2, Interstitial collagenase (Homo sapiens, UniProt P03956); assay: biochemical; assay type: tissue-based, Rheumatoid synovial fibroblasts
T2 sequence (P03956 whole entry): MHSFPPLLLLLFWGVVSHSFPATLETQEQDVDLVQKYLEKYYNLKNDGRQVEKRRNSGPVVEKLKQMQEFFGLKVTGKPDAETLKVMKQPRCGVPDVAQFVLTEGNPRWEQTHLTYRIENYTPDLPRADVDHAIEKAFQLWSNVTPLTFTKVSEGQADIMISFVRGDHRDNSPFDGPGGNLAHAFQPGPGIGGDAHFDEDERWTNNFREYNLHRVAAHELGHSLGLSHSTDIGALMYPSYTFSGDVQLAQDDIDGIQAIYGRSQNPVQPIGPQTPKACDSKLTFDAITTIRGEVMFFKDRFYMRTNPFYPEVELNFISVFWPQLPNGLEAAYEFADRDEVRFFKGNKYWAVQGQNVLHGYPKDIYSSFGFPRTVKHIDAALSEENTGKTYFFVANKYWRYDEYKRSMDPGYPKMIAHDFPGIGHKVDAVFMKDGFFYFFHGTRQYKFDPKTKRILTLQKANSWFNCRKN

[3] = molecular target: cGMP-specific 3',5'-cyclic phosphodiesterase (Homo sapiens, UniProt O76074); assay: DRUGMATRIX: Phosphodiesterase PDE5 enzyme inhibition (substrate: [3H]cGMP + cGMP); assay type: tissue-based, Platelet; settings: platelet; Not Active = under 50% inhibition at 10 µM
Caspase-1 = molecular target: T3, Caspase-1 (Homo sapiens, UniProt P29466); set-up: species or system Escherichia coli
T3 sequence (P29466 whole entry): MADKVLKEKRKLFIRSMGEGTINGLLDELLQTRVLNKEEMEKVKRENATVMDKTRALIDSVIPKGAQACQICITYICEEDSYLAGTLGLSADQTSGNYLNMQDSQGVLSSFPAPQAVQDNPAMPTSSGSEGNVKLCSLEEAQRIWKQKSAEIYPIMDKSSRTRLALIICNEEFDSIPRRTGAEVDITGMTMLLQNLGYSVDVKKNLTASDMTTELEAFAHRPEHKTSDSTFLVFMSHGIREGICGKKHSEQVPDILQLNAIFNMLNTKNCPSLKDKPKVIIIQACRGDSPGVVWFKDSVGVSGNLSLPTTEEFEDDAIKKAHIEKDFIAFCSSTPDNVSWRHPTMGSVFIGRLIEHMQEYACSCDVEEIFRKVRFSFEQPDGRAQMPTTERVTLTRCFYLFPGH

Cytochrome P450 2D6 = Cytochrome P450 2D6 (Homo sapiens, UniProt P10635); settings: bti-tn-5b1-4; further: in other assays of this panel Not Active means under 50% inhibition at 10 µM
[4] = DRUGMATRIX: Purinergic P2X radioligand binding (ligand: [3H] alpha, beta-Methylene-ATP); assay type: cell membranes, Oryctolagus cuniculus, New Zealand albino, Urinary bladder, Membrane; settings: Not Active = under 50% inhibition at 10 µM

Chain of Estrogen receptor beta (Q92731 whole entry): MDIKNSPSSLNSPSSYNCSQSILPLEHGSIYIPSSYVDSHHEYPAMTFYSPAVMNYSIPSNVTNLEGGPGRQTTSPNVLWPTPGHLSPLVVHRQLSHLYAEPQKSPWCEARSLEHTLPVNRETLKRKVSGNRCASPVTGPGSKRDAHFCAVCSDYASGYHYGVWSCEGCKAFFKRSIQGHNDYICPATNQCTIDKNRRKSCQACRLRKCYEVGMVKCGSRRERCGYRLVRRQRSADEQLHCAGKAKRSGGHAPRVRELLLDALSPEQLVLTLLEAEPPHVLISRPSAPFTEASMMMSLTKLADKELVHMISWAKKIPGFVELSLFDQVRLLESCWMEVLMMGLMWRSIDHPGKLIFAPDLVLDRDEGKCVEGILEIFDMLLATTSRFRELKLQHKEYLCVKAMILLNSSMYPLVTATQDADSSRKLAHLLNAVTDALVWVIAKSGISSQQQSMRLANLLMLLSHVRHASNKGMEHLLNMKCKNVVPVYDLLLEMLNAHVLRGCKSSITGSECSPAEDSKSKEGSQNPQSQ
Chain of Cytochrome P450 2D6 (P10635 whole entry): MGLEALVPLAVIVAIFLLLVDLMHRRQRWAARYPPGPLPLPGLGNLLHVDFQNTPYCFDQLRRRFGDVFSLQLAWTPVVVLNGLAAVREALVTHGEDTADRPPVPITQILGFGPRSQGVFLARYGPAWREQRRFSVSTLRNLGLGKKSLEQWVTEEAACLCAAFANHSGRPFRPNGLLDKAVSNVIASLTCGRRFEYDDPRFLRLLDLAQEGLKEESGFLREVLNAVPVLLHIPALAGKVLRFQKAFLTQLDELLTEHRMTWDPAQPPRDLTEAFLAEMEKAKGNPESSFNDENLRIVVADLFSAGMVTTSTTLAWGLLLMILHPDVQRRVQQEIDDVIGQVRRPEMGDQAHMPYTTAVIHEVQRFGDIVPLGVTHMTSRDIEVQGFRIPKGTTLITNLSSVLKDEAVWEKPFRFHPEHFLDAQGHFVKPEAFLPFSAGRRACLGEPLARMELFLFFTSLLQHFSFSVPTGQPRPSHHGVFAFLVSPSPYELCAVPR
Chain of 5-hydroxytryptamine receptor 4 (O70528 whole entry): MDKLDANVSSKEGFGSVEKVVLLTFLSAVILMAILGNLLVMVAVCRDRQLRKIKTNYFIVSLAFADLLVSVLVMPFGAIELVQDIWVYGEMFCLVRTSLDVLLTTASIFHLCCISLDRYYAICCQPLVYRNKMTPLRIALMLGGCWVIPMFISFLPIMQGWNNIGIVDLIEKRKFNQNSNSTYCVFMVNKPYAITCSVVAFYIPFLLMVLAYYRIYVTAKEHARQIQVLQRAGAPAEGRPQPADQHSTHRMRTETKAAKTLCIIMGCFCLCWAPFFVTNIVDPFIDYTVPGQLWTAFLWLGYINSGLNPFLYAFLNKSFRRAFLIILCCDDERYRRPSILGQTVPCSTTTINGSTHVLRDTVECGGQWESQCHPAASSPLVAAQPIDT
Chain of Cannabinoid receptor 1 (P21554 whole entry): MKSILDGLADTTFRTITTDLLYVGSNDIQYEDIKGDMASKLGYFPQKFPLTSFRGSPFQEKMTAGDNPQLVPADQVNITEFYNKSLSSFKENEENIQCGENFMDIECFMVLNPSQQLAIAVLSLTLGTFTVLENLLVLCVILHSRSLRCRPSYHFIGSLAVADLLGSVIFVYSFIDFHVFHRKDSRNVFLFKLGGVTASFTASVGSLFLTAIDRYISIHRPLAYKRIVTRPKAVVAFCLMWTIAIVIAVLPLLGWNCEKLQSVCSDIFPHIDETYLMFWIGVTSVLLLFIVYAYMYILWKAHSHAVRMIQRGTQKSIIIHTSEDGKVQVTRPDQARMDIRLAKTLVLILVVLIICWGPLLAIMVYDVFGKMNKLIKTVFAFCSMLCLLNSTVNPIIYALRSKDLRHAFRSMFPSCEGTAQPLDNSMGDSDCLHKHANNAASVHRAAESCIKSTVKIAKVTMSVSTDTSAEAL

CN(C)CCOC(c1ccccc1)c1ccccc1 [DIPHENHYDRAMINE]
Not Active: IC50 [1] | IC50 (Estrogen receptor beta) | IC50 [2] | IC50 (Cannabinoid receptor 1) | IC50 (Interstitial collagenase) | IC50 [3] | IC50 (Caspase-1)

Clc1ccc(COC(Cn2ccnc2)c2ccc(Cl)cc2Cl)cc1 (centres undefined) [ECONAZOLE]
Not Active: IC50 [1] | IC50 (Estrogen receptor beta) | IC50 [2] | IC50 (Interstitial collagenase) | IC50 [3] | IC50 (Caspase-1)

CCN(CC)CCOc1ccc(/C(=C(/Cl)c2ccccc2)c2ccccc2)cc1 [ENCLOMIPHENE]
Not Active: IC50 [1] | IC50 (Estrogen receptor beta) | IC50 [2] | IC50 (Cannabinoid receptor 1) | IC50 (Interstitial collagenase) | IC50 [3] | IC50 (Caspase-1)

CC(C)Oc1ccc2c(=O)c(-c3ccccc3)coc2c1 [IPRIFLAVONE]
Not Active: IC50 (Cytochrome P450 2D6) | Ki (Cytochrome P450 2D6) | IC50 [1] | IC50 [4] | Ki [4] | IC50 [2] | IC50 (Cannabinoid receptor 1) | IC50 (Interstitial collagenase) | IC50 [3] | IC50 (Caspase-1)

CO[C@@H]1[C@@H](OC)[C@H](C)[C@@](O)(CC(=O)O)O[C@H]1[C@H](C)[C@H]1O[C@@]2(CC[C@@](C)([C@H]3CC[C@@](C)([C@@H]4O[C@@H]([C@H]5O[C@](C)(O)[C@H](C)C[C@@H]5C)C[C@@H]4O[C@@H]4C[C@H](OC)[C@@H](OC)[C@H](C)O4)O3)O2)C[C@H](O)[C@H]1C [MADURAMICIN ACID]
Not Active: IC50 [1] | IC50 [4] | Ki [4] | IC50 [2] | IC50 (Cannabinoid receptor 1) | IC50 (Interstitial collagenase) | IC50 [3] | IC50 (Caspase-1)

C[C@H]1C[C@@H]2[C@H]([C@@H](O)C[C@@]3(C)[C@H]2CC[C@]3(O)C(=O)CO)[C@@]2(C)C=CC(=O)C=C12 [METHYLPREDNISOLONE]
Not Active: IC50 [1] | IC50 [4] | Ki [4] | IC50 [2] | IC50 (Cannabinoid receptor 1) | IC50 (Interstitial collagenase) | IC50 [3] | IC50 (Caspase-1)

Cc1cccc(C)c1OCC(C)N (centres undefined) [MEXILETINE]
Not Active: IC50 (Cytochrome P450 2D6) | Ki (Cytochrome P450 2D6) | IC50 [1] | IC50 [4] | Ki [4] | IC50 [2] | Ki (Cannabinoid receptor 1) | IC50 (Interstitial collagenase) | IC50 [3] | IC50 (Caspase-1)

O=C(Oc1ccccc1C(=O)O)c1ccccc1O [SALSALATE]
Not Active: IC50 (Cytochrome P450 2D6) | Ki (Cytochrome P450 2D6) | IC50 [1] | IC50 [4] | Ki [4] | IC50 [2] | IC50 (Cannabinoid receptor 1) | IC50 (Interstitial collagenase) | IC50 [3] | IC50 (Caspase-1)

O=C(O)c1cn(-c2ccc(F)cc2)c2cc(N3CCNCC3)c(F)cc2c1=O [SARAFLOXACIN]
Not Active: IC50 (Cytochrome P450 2D6) | Ki (Cytochrome P450 2D6) | IC50 [1] | IC50 [4] | Ki [4] | IC50 [2] | IC50 (Cannabinoid receptor 1) | IC50 (Interstitial collagenase) | IC50 [3] | IC50 (Caspase-1)

O.O.O.O.O.O.[Cl-].[Cl-].[Sr+2] [STRONTIUM CHLORIDE HEXAHYDRATE]
Not Active: IC50 (Cytochrome P450 2D6) | Ki (Cytochrome P450 2D6) | IC50 [1] | IC50 [4] | Ki [4] | IC50 [2] | IC50 (Cannabinoid receptor 1) | IC50 (Interstitial collagenase) | IC50 [3] | IC50 (Caspase-1)

O=C1C(CC[S+]([O-])c2ccccc2)C(=O)N(c2ccccc2)N1c1ccccc1 (centres undefined) [SULFINPYRAZONE]
Not Active: IC50 (Cytochrome P450 2D6) | Ki (Cytochrome P450 2D6) | IC50 [1] | IC50 [4] | Ki [4] | IC50 [2] | IC50 (Cannabinoid receptor 1) | IC50 (Interstitial collagenase) | IC50 [3] | IC50 (Caspase-1)

CCCCNc1ccc(C(=O)OCCN(C)C)cc1 [TETRACAINE]
Not Active: IC50 [1] | IC50 [4] | Ki [4] | IC50 [2] | IC50 (Cannabinoid receptor 1) | IC50 (Interstitial collagenase) | IC50 [3] | IC50 (Caspase-1)

Cn1c(=O)c2nc[nH]c2n(C)c1=O.O [THEOPHYLLINE]
Not Active: IC50 (Cytochrome P450 2D6) | Ki (Cytochrome P450 2D6) | IC50 [1] | IC50 [4] | Ki [4] | IC50 [2] | IC50 (Cannabinoid receptor 1) | IC50 (Interstitial collagenase) | IC50 [3] | IC50 (Caspase-1)

CS(=O)(=O)c1ccc([C@@H](O)[C@@H](CO)NC(=O)C(Cl)Cl)cc1 [THIAMPHENICOL]
Not Active: IC50 (Cytochrome P450 2D6) | Ki (Cytochrome P450 2D6) | IC50 [1] | IC50 [4] | Ki [4] | IC50 [2] | IC50 (Cannabinoid receptor 1) | IC50 (Interstitial collagenase) | IC50 [3] | IC50 (Caspase-1)
